What was measured:
[1] = tested on: hyperalgesia induced by chronic constriction of the sciatic nerve; experiment: hyperalgesia induced by chronic constriction of the sciatic nerve (rat paw pressure test); format: in vivo
Protocol: For the induction of neuropathic pain, surgery was performed in the sciatic nerve, in accordance with the method described by Bennett, G. J and Xie, Y. K. (Pain, 33:87-107, 1988). The animals were anesthetized with halothane. The sciatic nerve was exposed in the middle region of the thigh, moving away the femoral biceps muscle. Close to the trifurcation of the sciatic nerve, 7 mm of distance from the trifurcation, 4 loose ligations were performed (chromed catgut 4-0) around it, distant from each other in approximately 1 mm. The bindings were performed along the nerve, up to 4-5 mm from the initial point. The incision was sutured in layers, using silk suture thread number 4-0.
The test was applied before (BM-basal measurement) and on the 14th day after the surgery, to characterize the development of neuropathic pain.
The results were analyzed by comparing the means of the basal and initial measurements or by comparing the means of the initial and final measurements or, when determined, through the comparison of the means obtained in the different experimental groups.
(§1) For this purpose, the animals were treated with CTOP, a specific μ receptor antagonist (20 μg/paw), nor-BNI, a specific κ receptor antagonist (50 μg/paw) or with ICI 174,864, a specific δ receptor antagonist (10 μg/paw). The antagonists were injected, by intraplantar route. The peptide was administered in the dose of 5 μg/kg, orally, immediately before the injection of the opioid antagonists.
The results were analyzed comparing the mean values of the basal and initial measurements, or of the initial and final measurements or, when determined, by comparing the mean values obtained in the different experimental groups (Tables 15 and 16).

[2] = tested on: allodynia induced by the Walker 256 tumor; experiment: allodynia induced by the Walker 256 tumor (cancer pain); format: in vivo, rat
Description: The Walker 256 tumor cells were kindly provided by Prof. Dr. Rui Curi, of the Physiology and Biophysics Department of the Biomedical Science Institute of the University of São Paulo. The tumor-bearing animal was sacrificed and the tumoral tissue was removed, placed on a Petri dish containing 0.9% saline. Then, the tumor was cut in smaller parts, and transferred into a beaker containing saline. The material was triturated with a fine-cut, until the tumor is totally fragmented. Then, this material was filtered in gauze and the liquid collected in a beaker. All procedures were performed on ice. The material of the beaker was transferred to 50 ml plastic tubes and centrifuged at 4° C., for 10 minutes, at 1200 rpm. After centrifugation, the supernatant was rejected and the precipitate resuspended in saline 0.9%. For cell counts, the suspension of cells was diluted (1:100) in saline. An aliquot (200 μl) was removed and placed in a test tube containing 200 μl of 1% Trypan blue. The cell number was determined in optical microscope using Neubauer's chamber. The cellular viability was determined considering viable the light-refracting cells.
After determining the number of cells, 1 ml of the suspension, containing 1×10^7 cells, was injected by intraperitoneal route, on the right side of the rats to obtain liquid tumor (ascites).
Five days after injection, the rats with ascites were sacrificed and the ascetic fluid collected from the peritoneal cavity and placed in a test tube containing EDTA. The liquid was diluted 100 times with phosphate-buffered saline (PBS), pH 7.4. The cell count was done after dilution with Trypan blue, as described above. Tumor cell count was ascertained to 1×10^6 cells in 100 μl, by dilution with PBS. This number of cells was determined in preliminary tests for induction of cancer pain in rats. In this final cell number adjustment, the volume of antibiotic (Benzetacil®) added to the suspension (150,000 units of antibiotic/10 ml of suspension), was taken into consideration. The antibiotic was used in order to avoid microbial contamination. The cells were injected by intraplantar route into one of the rat hind paws. Control animals were injected with PBS into the contralateral paw, in the same experimental conditions.
Hyperalgesia, allodynia and spontaneous pain were determined before (BM-basal measurement) and 5 days after tumor cell injection, before (IM-initial measurement) and 2 hours after (FM-Final measurement) peptide administration.
The results were analyzed comparing the mean values of the basal and initial measurements, or of the initial and final measurements or, when determined, by comparing the mean values obtained in the different experimental groups (Tables 17, 18, 19).
as §1, with “were injected” for “were injected,”, “of 6” for “of 5”, “antagonists. The results were analyzed comparing the mean values of the basal and initial measurements, or of the initial and final measurements or, when determined, by comparing the mean values obtained in the different experimental groups ( Table 20).” for “antagonists.”

[3] = oral route, results 1 hour after treatment, reversal of hyperalgesia, CurveExpert 1.3

Xaa-Phe-Ser-Pro-Glu-Asn-Cys-Gln-Gly-Glu-Ser-Gln-Pro-Cys [SEQ ID NO: 2]
pain threshold, IM ([1]; 1 μg/kg p.o., day 14 after surgery, before peptide): 31 ± 1.00 g | pain threshold, FM 1 h ([1]; 5 μg/kg p.o. + CTOP 20 μg/paw i.pl., 1 h after peptide): 105 ± 4.18 g | pain threshold, MF 3 h ([1]; 5 μg/kg p.o. + CTOP 20 μg/paw i.pl., 3 h after peptide): 112 ± 5.83 g | pain threshold, BM ([1]; 5 μg/kg p.o. + CTOP 20 μg/paw i.pl., before surgery): 72 ± 1.22 g | pain threshold, IM ([1]; 5 μg/kg p.o. + CTOP 20 μg/paw i.pl., day 14, before peptide): 41 ± 1.88 g | pain threshold, FM 1 h ([1]; 5 μg/kg p.o. + ICI 174,864 10 μg/paw i.pl., 1 h after peptide): 35 ± 1.87 g | pain threshold, MF 3 h ([1]; 5 μg/kg p.o. + ICI 174,864 10 μg/paw i.pl., 3 h after peptide): 37 ± 2.55 g | pain threshold, BM ([1]; 5 μg/kg p.o. + ICI 174,864 10 μg/paw i.pl., before surgery): 72 ± 1.22 g | pain threshold, IM ([1]; 5 μg/kg p.o. + ICI 174,864 10 μg/paw i.pl., day 14, before peptide): 34 ± 1.87 g | pain threshold, FM 1 h ([1]; 5 μg/kg p.o. + nor-BNI 50 μg/paw i.pl., 1 h after peptide): 69 ± 1.87 g | pain threshold, MF 3 h ([1]; 5 μg/kg p.o. + nor-BNI 50 μg/paw i.pl., 3 h after peptide): 75 ± 1.58 g | pain threshold, BM ([1]; 5 μg/kg p.o. + nor-BNI 50 μg/paw i.pl., before surgery): 73 ± 1.22 g | pain threshold, IM ([1]; 5 μg/kg p.o. + nor-BNI 50 μg/paw i.pl., day 14, before peptide): 35 ± 1.58 g | pain threshold, BM ([1]; 5 μg/kg p.o., before surgery (Table 11)): 72 ± 0.79 g | pain threshold, BM ([1]; 5 μg/kg p.o., before surgery (Table 15)): 72 ± 1.44 g | pain threshold, FM 1 h ([1]; 5 μg/kg p.o., day 14, 1 h after peptide (Table 11)): 100 ± 4.42 g | pain threshold, FM 1 h ([1]; 5 μg/kg p.o., day 14, 1 h after peptide (Table 15)): 114 ± 6.57 g | pain threshold, FM 3 h ([1]; 5 μg/kg p.o., day 14, 3 h after peptide (Table 11)): 98 ± 4.28 g | pain threshold, MF 3 h ([1]; 5 μg/kg p.o., day 14, 3 h after peptide (Table 15)): 121 ± 5.91 g | pain threshold, FM 24 h ([1]; 5 μg/kg p.o., day 14, 24 h after peptide): 99 ± 3.51 g | pain threshold, FM 48 h ([1]; 5 μg/kg p.o., day 14, 48 h after peptide): 93 ± 3.00 g | pain threshold, FM 72 h ([1]; 5 μg/kg p.o., day 14, 72 h after peptide): 86 ± 2.45 g | pain threshold, FM 96 h ([1]; 5 μg/kg p.o., day 14, 96 h after peptide): 33 ± 1.18 g | pain threshold, IM ([1]; 5 μg/kg p.o., day 14, before peptide (Table 15)): 35 ± 2.04 g | pain threshold, IM ([1]; 5 μg/kg p.o., day 14 after surgery, before peptide (Table 11)): 32 ± 0.79 g | duration of the anti-hyperalgesic effect ([1]; one single administration p.o.): up to 3 days | 50% effective dose [1, 3]: 0.2055 µg/kg | 60% effective dose [1, 3]: 0.2832 µg/kg | 90% effective dose [1, 3]: 0.5747 µg/kg | effect of the mu opioid receptor antagonist on the anti-hyperalgesic effect of the peptide ([1]; peptide 5 μg/kg p.o., CTOP 20 μg/paw i.pl.): did not alter | effect of the delta opioid receptor antagonist on the anti-hyperalgesic effect of the peptide ([1]; peptide 5 μg/kg p.o., ICI 174,864 10 μg/paw i.pl.): blocked | effect of the kappa opioid receptor antagonist on the anti-hyperalgesic effect of the peptide ([1]; peptide 5 μg/kg p.o., nor-BNI 50 μg/paw i.pl.): partially inhibited | paw withdrawal threshold (allodynia), FM ([2]; 6 μg/kg p.o. + CTOP 20 μg/paw i.pl., 5th day, 2 hours after peptide): 4.98 ± 0.03 log 10 (mg × 10) | paw withdrawal threshold (allodynia), IM ([2]; 6 μg/kg p.o. + CTOP 20 μg/paw i.pl., 5th day, before peptide): 4.41 ± 0.00 log 10 (mg × 10) | paw withdrawal threshold (allodynia), BM ([2]; 6 μg/kg p.o. + CTOP 20 μg/paw i.pl., before injection of the tumor): 5.03 ± 0.02 log 10 (mg × 10) | paw withdrawal threshold (allodynia), FM ([2]; 6 μg/kg p.o. + ICI 174,864 10 μg/paw i.pl., 5th day, 2 hours after peptide): 4.56 ± 0.03 log 10 (mg × 10) | paw withdrawal threshold (allodynia), IM ([2]; 6 μg/kg p.o. + ICI 174,864 10 μg/paw i.pl., 5th day, before peptide): 4.41 ± 0.00 log 10 (mg × 10) | paw withdrawal threshold (allodynia), BM ([2]; 6 μg/kg p.o. + ICI 174,864 10 μg/paw i.pl., before injection of the tumor): 4.99 ± 0.02 log 10 (mg × 10) | paw withdrawal threshold (allodynia), FM ([2]; 6 μg/kg p.o. + nor-BNI 50 μg/paw i.pl., 5th day, 2 hours after peptide): 4.41 ± 0.00 log 10 (mg × 10) | paw withdrawal threshold (allodynia), IM ([2]; 6 μg/kg p.o. + nor-BNI 50 μg/paw i.pl., 5th day, before peptide): 4.41 ± 0.00 log 10 (mg × 10) | paw withdrawal threshold (allodynia), BM ([2]; 6 μg/kg p.o. + nor-BNI 50 μg/paw i.pl., before injection of the tumor): 4.97 ± 0.00 log 10 (mg × 10) | paw withdrawal threshold (allodynia), FM ([2]; 6 μg/kg p.o., 5th day after tumor implantation, 2 hours after peptide (Table 18)): 4.97 ± 0.00 log 10 (mg × 10) | paw withdrawal threshold (allodynia), IM ([2]; 6 μg/kg p.o., 5th day after tumor implantation, before peptide (Table 18)): 4.41 ± 0.00 log 10 (mg × 10) | paw withdrawal threshold (allodynia), FM ([2]; 6 μg/kg p.o., 5th day, 2 hours after peptide (Table 21)): 4.97 ± 0.00 log 10 (mg × 10) | paw withdrawal threshold (allodynia), IM ([2]; 6 μg/kg p.o., 5th day, before peptide (Table 21)): 4.41 ± 0.00 log 10 (mg × 10) | paw withdrawal threshold (allodynia), BM ([2]; 6 μg/kg p.o., before injection of the tumor (Table 18)): 4.97 ± 0.00 log 10 (mg × 10) | paw withdrawal threshold (allodynia), BM ([2]; 6 μg/kg p.o., before injection of the tumor (Table 21)): 4.97 ± 0.00 log 10 (mg × 10) | effect of the mu opioid receptor antagonist on the anti-allodynic effect of the peptide ([2]; peptide 6 μg/kg p.o., CTOP 20 μg/paw i.pl.): did not alter | effect of the delta opioid receptor antagonist on the anti-allodynic effect of the peptide ([2]; peptide 6 μg/kg p.o., ICI 174,864 10 μg/paw i.pl.): partially inhibited | effect of the kappa opioid receptor antagonist on the anti-allodynic effect of the peptide ([2]; peptide 6 μg/kg p.o., nor-BNI 50 μg/paw i.pl.): blocked
